Type in all cases: cell-based, human
One test relates to FGFR signaling pathway. Description: CELx multiple pathway test, impedance biosensor cell adhesion, FGF/BGJ398 pair. To be noted: activator FGF. The source says:
(§1) Biosensor and transducer: A 96-well impendence E-Plate (ACEA, San Diego, CA) was placed onto an xCELLigence RTCA MP Station impendence biosensor (ACEA, San Diego, CA). The biosensor measured simultaneously the impedance of every well. The change in impedance for a particular well is proportional to the number of cells and type of attachment the cells have with the impedance microplate. Changes in impedance indicate a response to perturbation of these small cell populations. Coatings: The 96-E-Plate were wells were coated with fibronectin and or collagen. Collagen is purchased from Advanced BioMatrix (Carlsbad, CA) and fibronectin from Sigma-Aldrich (St. Louis, MO). Tissue and cell samples: A total of 18 samples of human tumor cells from breast, lung, colon, ovarian, kidney, bladder cancer were studied. For each of these six different cancer types, tumor cell samples from three different patients were tested. Any biomarkers that are used to guide selection of targeted therapy are listed in Table 18 for each patient if they were present. Signaling Pathways activator agent and targeted therapeutic pairs: Eleven different signaling pathways were studied in each human tumor cell sample using […] signaling pathway activator agent and targeted therapeutic pairs. Each of the signaling pathway activator agent and targeted therapeutic pairs affect the same signaling pathway. Each of the signaling pathway activator agents is a well-characterized and specific agonist of its associated signaling pathway and each of the targeted therapeutic agents is a well-characterized and specific antagonist of the same associated signaling pathway. The signaling pathway activator agents and targeted therapeutics used to characterize the activity level of the associated signaling pathway are summarized in Table 16 below:
(§2) Other Reagents: Standard media antibiotics (e.g. penicillin, streptomycin) and other buffers were purchased and used as delivered from ATCC (Manassas, VA, USA) or Life Technologies (Grand Island, NY). Procedure: For each test of a patient cell sample with a pair of signaling pathway activator and targeted therapeutic agents, six wells were seeded with approximately 15,000 cells in 120 uL culture media. Twenty microliters of the targeted therapeutic agent were added to two wells of each patient's cells and 20 microliters of standard media were added to the other four wells for each patient 18 hours in advance of addition of the signaling pathway activator agent. Signaling pathway stimulation was initiated with the addition of 20 ul of the signaling pathway activator agent in the two wells that received a targeted therapeutic agent and in two additional wells for each patient's set of cells without the targeted therapeutic. The impedance recording of attachment and adhesion change was performed at 37° C., 5% C02. Data was recorded on a continuous basis throughout the test, where the data presented is from the initial baseline level of cell attachment compared to the subsequent effects following the targeted therapeutic agent and the signaling pathway activator agent additions on the 18 different patient samples. Results:
(§3) Table 17 presents the results, expressed as an output value, for each of the 167 tests performed using the methods described above. For each of the 18 patient samples, up to 11 different signaling pathways were tested. The output value represents the difference between the amount of cell adhesion change resulting from addition of the signaling pathway activator agent and the amount of cell adhesion change resulting from addition of the targeted therapeutic agent.

A further test concerns IGFR signaling pathway. In words: CELx multiple pathway test, impedance biosensor cell adhesion, IGF/Linsitinib pair. To be noted: activator IGF.
Text: as §1, §2, §3

In another test the test system is EGFR signaling pathway. Description: CELx multiple pathway test, impedance biosensor cell adhesion, EGF/Neratinib pair. To be noted: activator EGF.
Text: as §1
as §2, with “samples.” for “samples. Results:”
(§4) For each of the 18 patient samples, up to 11 different signaling pathways were tested. The output value represents the difference between the amount of cell adhesion change resulting from addition of the signaling pathway activator agent and the amount of cell adhesion change resulting from addition of the targeted therapeutic agent.

The subject of the next test is HER3 signaling pathway. In words: CELx multiple pathway test, impedance biosensor cell adhesion, NRG1/Neratinib pair. The conditions noted are these: activator NRG1.
Text: as §1, §2, §3

For test [1], the system named is c-MET/HGF signaling pathway. In words: CELx multiple pathway test, impedance biosensor cell adhesion, HGF/SGX-523 pair. The conditions noted are these: activator HGF.
Text: as §1
as §2, with “samples.” for “samples. Results:”
as §4

Among the data in patent US12320799B2, “Methods of measuring signaling pathway activity for selection of therapeutic agents” (Celcuity Inc., priority 2017, dated 2025) are output value values, retold here.

As for `CCN1CCN(c2ccc(Nc3cc(N(C)C(=O)Nc4c(Cl)c(OC)cc(OC)c4Cl)ncn3)cc2)CC1` [BGJ398], the output value in the test on FGFR signaling pathway (C2 breast tumor cells) is recorded as 14; in the test with FGFR signaling pathway (C21 breast tumor cells), 15; with FGFR signaling pathway (C23 lung tumor cells), 1; in the test on FGFR signaling pathway (C24 lung tumor cells), −6; in the test on FGFR signaling pathway (C25 lung tumor cells), 14; in the test on FGFR signaling pathway (C34 breast tumor cells), 33. The output value is 65 in the test on FGFR signaling pathway (C54 ovarian tumor cells); 4 in the test with FGFR signaling pathway (C62 colorectal tumor cells); −19 with FGFR signaling pathway (C69 ovarian tumor cells); 43 in the test with FGFR signaling pathway (C71 colorectal tumor cells); −20 with FGFR signaling pathway (C72 colorectal tumor cells); 12 in the test with FGFR signaling pathway (C77 ovarian tumor cells). The output value is listed as 75 in the test with FGFR signaling pathway (C81 bladder tumor cells); −94 with FGFR signaling pathway (C82 bladder tumor cells); 8 in the test on FGFR signaling pathway (C87 bladder tumor cells); 251 in the test on FGFR signaling pathway (C88 kidney tumor cells); −47 with FGFR signaling pathway (C90 kidney tumor cells); 6 in the test on FGFR signaling pathway (C92 kidney tumor cells).

Consider `C[C@]1(O)C[C@@H](c2nc(-c3ccc4ccc(-c5ccccc5)nc4c3)c3c(N)nccn32)C1` [Linsitinib], for which the output value in the test with IGFR signaling pathway (C2 breast tumor cells) is 20; in the test with IGFR signaling pathway (C21 breast tumor cells), 69; in the test on IGFR signaling pathway (C23 lung tumor cells), 32; in the test with IGFR signaling pathway (C24 lung tumor cells), −61; in the test on IGFR signaling pathway (C25 lung tumor cells), −44; with IGFR signaling pathway (C34 breast tumor cells), 34. For the same molecule, the output value is reported as −8 in the test with IGFR signaling pathway (C54 ovarian tumor cells); 6 in the test with IGFR signaling pathway (C62 colorectal tumor cells); −111 with IGFR signaling pathway (C69 ovarian tumor cells); −2 in the test on IGFR signaling pathway (C71 colorectal tumor cells); −22 in the test with IGFR signaling pathway (C72 colorectal tumor cells); 56 in the test on IGFR signaling pathway (C77 ovarian tumor cells). Besides, the output value in the test on IGFR signaling pathway (C81 bladder tumor cells) was 351; in the test with IGFR signaling pathway (C82 bladder tumor cells) it was 21; in the test on IGFR signaling pathway (C87 bladder tumor cells), 210; in the test on IGFR signaling pathway (C88 kidney tumor cells), 143; in the test on IGFR signaling pathway (C90 kidney tumor cells) it was −607; in the test on IGFR signaling pathway (C92 kidney tumor cells), 73.

For `CCOc1cc2ncc(C#N)c(Nc3ccc(OCc4ccccn4)c(Cl)c3)c2cc1NC(=O)/C=C/CN(C)C` [Neratinib], the output value in the test with EGFR signaling pathway (C2 breast tumor cells) is −19; in the test with EGFR signaling pathway (C21 breast tumor cells), 503; with EGFR signaling pathway (C23 lung tumor cells), 298; in the test on EGFR signaling pathway (C24 lung tumor cells), 245; in the test with EGFR signaling pathway (C25 lung tumor cells), 209; in the test on EGFR signaling pathway (C34 breast tumor cells), 247. For the same molecule, the output value in the test with EGFR signaling pathway (C54 ovarian tumor cells) is recorded as 654; in the test on EGFR signaling pathway (C62 colorectal tumor cells), 28; in the test with EGFR signaling pathway (C69 ovarian tumor cells), 614; in the test on EGFR signaling pathway (C71 colorectal tumor cells), 179; in the test on EGFR signaling pathway (C72 colorectal tumor cells), 5; in the test on EGFR signaling pathway (C77 ovarian tumor cells), −78. Moreover, the output value in the test with EGFR signaling pathway (C81 bladder tumor cells) is on record as 344; with EGFR signaling pathway (C82 bladder tumor cells), 345; in the test with EGFR signaling pathway (C87 bladder tumor cells), 334; with EGFR signaling pathway (C88 kidney tumor cells), −67; in the test with EGFR signaling pathway (C90 kidney tumor cells) it was 150; with EGFR signaling pathway (C92 kidney tumor cells) it was 290. Besides, the output value was −1 in the test on HER3 signaling pathway (C2 breast tumor cells); 234 in the test on HER3 signaling pathway (C21 breast tumor cells); 373 in the test with HER3 signaling pathway (C23 lung tumor cells); 194 with HER3 signaling pathway (C24 lung tumor cells); 116 in the test on HER3 signaling pathway (C25 lung tumor cells); 4 in the test on HER3 signaling pathway (C34 breast tumor cells). In addition, the output value in the test on HER3 signaling pathway (C54 ovarian tumor cells) stood at 244; with HER3 signaling pathway (C62 colorectal tumor cells), 2; with HER3 signaling pathway (C69 ovarian tumor cells), 178; in the test on HER3 signaling pathway (C71 colorectal tumor cells), 28; in the test on HER3 signaling pathway (C72 colorectal tumor cells) it was 5; in the test with HER3 signaling pathway (C77 ovarian tumor cells) it was 128. Besides, the output value is 13 in the test on HER3 signaling pathway (C81 bladder tumor cells); 31 in the test on HER3 signaling pathway (C82 bladder tumor cells); 10 with HER3 signaling pathway (C87 bladder tumor cells); 5 with HER3 signaling pathway (C88 kidney tumor cells); −32 in the test with HER3 signaling pathway (C90 kidney tumor cells); 36 in the test with HER3 signaling pathway (C92 kidney tumor cells).

As to `Cn1cc(-c2ccc3nnc(Sc4ccc5ncccc5c4)n3n2)cn1` [SGX-523], the output value in test [1] (C2 breast tumor cells) worked out at 0; in test [1] (C21 breast tumor cells) it was 222; in test [1] (C23 lung tumor cells) it was 469; in test [1] (C24 lung tumor cells) it was 78; in test [1] (C25 lung tumor cells), 132; in test [1] (C34 breast tumor cells), 6. In addition, the output value is 123 in test [1] (C54 ovarian tumor cells); −6 in test [1] (C62 colorectal tumor cells); −27 in test [1] (C69 ovarian tumor cells); 53 in test [1] (C71 colorectal tumor cells); −110 in test [1] (C72 colorectal tumor cells); 227 in test [1] (C77 ovarian tumor cells). For the same molecule, the output value in test [1] (C81 bladder tumor cells) was 419; in test [1] (C82 bladder tumor cells) it was 41; in test [1] (C87 bladder tumor cells), 28; in test [1] (C88 kidney tumor cells), −13; in test [1] (C90 kidney tumor cells) it was 368; in test [1] (C92 kidney tumor cells), 154.
